According to patent US7229803B2, “Reaction of (di)amines in the presence of a lysine oxidase and of a reducing agent” (BASF Aktiengesellschaft, priority 2001, dated 2007):

Biological target: T1, lysine oxidase from Pichia pastoris (Komagataella pastoris, UniProt Q96X16)
T1 construct: Purification of the Lysine Oxidase from Pichia pastoris; endogenous in cells; host or cells: Pichia pastoris (enzyme purified from the yeast itself)
T1 sequence (Q96X16 19-787): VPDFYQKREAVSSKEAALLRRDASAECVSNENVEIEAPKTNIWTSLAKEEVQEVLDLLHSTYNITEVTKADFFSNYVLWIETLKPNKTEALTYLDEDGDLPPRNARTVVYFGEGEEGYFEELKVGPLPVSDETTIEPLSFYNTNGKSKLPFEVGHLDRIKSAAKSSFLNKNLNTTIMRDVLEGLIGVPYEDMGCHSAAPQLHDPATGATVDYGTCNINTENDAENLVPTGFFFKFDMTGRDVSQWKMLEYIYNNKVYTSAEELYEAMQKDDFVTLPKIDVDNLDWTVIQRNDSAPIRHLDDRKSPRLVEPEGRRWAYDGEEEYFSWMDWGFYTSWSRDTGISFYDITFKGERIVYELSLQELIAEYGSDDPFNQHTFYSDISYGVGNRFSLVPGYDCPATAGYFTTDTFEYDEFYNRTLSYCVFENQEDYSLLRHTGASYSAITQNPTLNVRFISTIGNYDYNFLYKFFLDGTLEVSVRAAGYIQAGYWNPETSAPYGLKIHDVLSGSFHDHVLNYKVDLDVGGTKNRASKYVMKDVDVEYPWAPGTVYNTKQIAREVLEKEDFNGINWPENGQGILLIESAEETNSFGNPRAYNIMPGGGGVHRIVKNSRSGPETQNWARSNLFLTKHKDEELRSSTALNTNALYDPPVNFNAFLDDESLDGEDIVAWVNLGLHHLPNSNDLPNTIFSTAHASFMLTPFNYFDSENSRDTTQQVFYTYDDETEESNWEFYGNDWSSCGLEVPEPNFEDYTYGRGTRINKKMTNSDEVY
Test: Assays with various substrates: conversion in the presence of lysine oxidase (peroxidase/4-aminoantipyrine/phenol dye, absorption at 500 nm)
Format: biochemical
Settings: substrate 18.75-1200 μmol/l in water, no reducing agent, L-lysine = 100
Protocol: Measurement series in each case with a concentration of 1 200, 600, 300, 150, 75, 37.5 and 18.75 μmol of (di)amine per 1 l of water were carried out in a microtiter plate. 2 measurement series were carried out in each case; one with enzyme and one without enzyme as reference.
100 μl of each of the diluted solutions were taken. To this solution were added 25 μl of lysine oxidase and 40 μl of 35 millimolar phenol solution in 200 millimolar potassium phosphate/potassium diphosphate solution with a pH of 7.5, 40 μl of a 2 millimolar aqueous 4-aminoantipyrine solution and 40 μl of a solution of 0.35 mg of peroxidase (horseradish from Sigma) in 1 ml of water.
In the reference measurement series, the 25 μl of lysine oxidase were replaced by 25 μl of water. A violet dye was formed by the […] produced on conversion of the substrates and its absorption in the UV at 500 nm was measured (T. Uwajima, O. Terada, Methods in Enzymology 1982, 89, 243 ff.).

SMILES	Relative conversion rate compared with L-lysine in %
NCCCC(N)C(=O)OC(F)F [D/L-Ornithine difluoromethyl ester]	39%
NCCCC[C@@H](N)C(=O)O [D-Lysine]	100%
NCCCNCCCCNCCCN [Spermine]	185%
NCCCCCCN [1,6-Diaminohexane]	180%
CCOC(=O)CN [Glycine ethyl ester]	93%
NCc1ccccc1 [Benzylamine]	108%
CC(=O)N[C@@H](CCCCN)C(=O)O [α-N-Acetyllysine]	120%
CCCCN [n-Butylamine]	63%
NCCCCCCCCN [1,8-Diaminooctane]	197%
NCCCCN [1,4-Diaminobutane]	133%
NCCCC[C@H](N)C(=O)O [L-Lysine]	100%
NCCO [Ethanolamine]	50%
NCc1cccnc1 [3-Aminomethylpyridine]	128%
NCC(O)CCC(N)C(=O)O [D/L-5-Hydroxylysine]	60%
NCCN [Ethylenediamine]	84%
